Consider 9 compounds from patent publication US20040152695A1, “Pharmaceutical composition of 1-(3-hydroxy-4-methoxyphenyl)-4-methyl-5-ethyl-7,8-dimethoxy-5H-2,3-benzodiazepine and uses thereof” (Vela Pharmaceuticals, Inc., priority 2002, published 2004).

For one assay, the target named is T1, LTB4 receptor (Cavia porcellus, UniProt H0VYV8).
T1 construct: 1.0 mg/mL of the Guinea pig spleen membrane preparation; from tissue; host or cells: guinea pig spleen membranes
As to the kind of experiment: Inhibition of [3H]LTB4 binding, guinea pig spleen membrane assay. To be noted: 10 μM test compound; for LTB4 % inhib @ 10 μm: 1 nM [3H]LTB4; for inhibition at 10 µM: 1 nM [3H]LTB4, read-out: LTB4 % inhib @ 10 μm. On the procedure: The ability of 1-(3-hydroxy-4-methoxyphenyl)-4-methyl-5-ethyl-7,8-dimethoxy-5H-2,3-benzodiazepine to inhibit [^3H]LTB4 binding to the LTB4 receptor was determined as follows using the guinea pig spleen membrane assay of Cheng et al., J. Pharmacol. Exp. Ther., 236(1), 126-132, 1986, the entire disclosure of which is incorporated herein by reference.
Reactions were carried out in a phosphate buffer (pH 7.4) containing NaCl, MgCl2, EDTA, and bacitracin. The reaction volume of 150 μL containing 1.0 mg/mL of the Guinea pig spleen membrane preparation and 1 nM [^3H]LTB4, with or without a candidate inhibitor, was incubated at 0-4° C. for 2 hours. Candidate inhibitors included the compounds listed in Table 1 and unlabeled LTB4 as a control. The reaction was terminated by rapid vacuum filtration onto glass fiber filters. The filter was washed with cold buffer, dried and placed in a scintillation vial. Radioactivity trapped onto the filters was determined and compared to control values in order to ascertain any interactions of the test compound with the LTB4 binding site.

Another assay has as its system aggression in mice. The settings on record: cited from earlier work.
In a further assay the test system is muricide in rats. To be noted: cited from earlier work.
Assay [1] deals with anti-noradrenergic effects. The settings on record: cited from earlier work.
A further assay has as its system narcosis in mice. The settings on record: cited from earlier work.
Another assay has as its system central BZ receptors. The settings on record: cited from earlier work.
For the next assay, the target named is peripheral BZ receptors (Homo sapiens, UniProt P30536). The settings on record: cited from earlier work.
Sequence of peripheral BZ receptors (P30536 whole entry): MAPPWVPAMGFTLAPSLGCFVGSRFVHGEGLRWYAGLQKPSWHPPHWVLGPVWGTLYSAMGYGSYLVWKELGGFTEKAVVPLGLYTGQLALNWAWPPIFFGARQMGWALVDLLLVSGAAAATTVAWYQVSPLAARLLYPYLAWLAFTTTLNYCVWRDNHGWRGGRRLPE
In assay [2] the target is T2, TXA2 receptor (Homo sapiens, UniProt P21731).
T2 construct: from tissue; host or cells: human platelets
T2 sequence (P21731 1-343): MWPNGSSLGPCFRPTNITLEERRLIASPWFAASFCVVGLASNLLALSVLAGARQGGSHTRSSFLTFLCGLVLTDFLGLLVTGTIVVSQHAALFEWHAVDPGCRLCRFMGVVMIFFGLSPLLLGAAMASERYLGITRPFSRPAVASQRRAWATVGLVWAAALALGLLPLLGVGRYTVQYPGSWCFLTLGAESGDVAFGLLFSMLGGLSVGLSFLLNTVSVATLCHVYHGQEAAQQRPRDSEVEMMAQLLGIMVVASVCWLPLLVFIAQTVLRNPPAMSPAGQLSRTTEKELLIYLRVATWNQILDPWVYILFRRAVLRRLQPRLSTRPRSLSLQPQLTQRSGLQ
As to the kind of experiment: TXA2 binding assay ([3H]SQ 29,548), human platelet-based. To be noted: human platelets. On the procedure: The ability of 1-(3-hydroxy-4-methoxyphenyl)-4-methyl-5-ethyl-7,8-dimethoxy-5H-2,3-benzodiazepine to inhibit the binding of [^3H]SQ 29,548 (30-60 Ci/mmol) was determined via the human platelet-based assay of Hedberg et al., “Characterization of [^3H]SQ 29,548 as a High Affinity Radioligand Binding to Thromboxane A2—Receptors in Human Platelets.”, J. Pharmacol. Exp. Ther. 245: 786-792 (1988), with modifications. TXA2 is a very unstable molecule, thus a surrogate ligand of known affinity for the TXA2 receptor is required as a standard for determination of binding affinity of new potential TXA2 ligands. [^3H]SQ 29,548 is a ligand with known binding affinity for the TXA2 receptor. [^3H]SQ 29,548 has been employed as a TXA2 ligand in several published studies, is accepted as a TXA2 binding standard, and is thus useful as a standard in assessing the binding affinity of new compounds to the TXA2 receptor. […]
Reactions were carried out in a reaction mixture comprising 25 mM TRIS-HCl (pH 7.4) containing 138 mM NaCl, 5 mM KCl, 5 mM MgCl2, 5.5 mM dextrose, and 2 mM EDTA at 25° C. for 60 minutes. […] Radioactivity trapped onto the filters was determined and compared to control values in order to ascertain any interactions of test compound with the thromboxane A2 binding site.

The test system of assay [3] is DSS-induced colitis in mice. The assay is described as follows: Dextran sulfate sodium induced colitis: mouse model of inflammatory bowel disease. The class given is in vivo. To be noted: for % of normal length: colon length; for Mean DAIWT ± SEM: DAI without weight loss parameter; for Mean DAI ± SEM: mice.
Assay [4] deals with T2, TXA2 receptor. The settings on record: reference competitor in [3H]SQ 29,548 assay; cited from earlier work.

T1 sequence (H0VYV8 1-348): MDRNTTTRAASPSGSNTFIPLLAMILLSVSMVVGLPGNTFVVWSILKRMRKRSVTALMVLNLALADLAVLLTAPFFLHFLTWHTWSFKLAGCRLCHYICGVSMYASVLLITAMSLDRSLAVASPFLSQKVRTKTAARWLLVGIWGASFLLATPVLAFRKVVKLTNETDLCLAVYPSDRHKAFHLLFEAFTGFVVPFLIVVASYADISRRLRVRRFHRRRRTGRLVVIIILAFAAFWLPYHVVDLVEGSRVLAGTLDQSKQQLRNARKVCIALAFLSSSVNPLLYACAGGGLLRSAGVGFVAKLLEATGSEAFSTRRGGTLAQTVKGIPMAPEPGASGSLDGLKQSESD

Regarding `CCC1C(C)=NN=C(c2ccc(OC)c(O)c2)c2cc(OC)c(O)cc21` (stereo not drawn) [Compound 6, 1-(3-hydroxy-4-methoxyphenyl)-4-methyl-5-ethyl-7-hydroxy-8-methoxy-5H-2,3-benzodiazepine], the “LTB4 % inhib @ 10 μm” value at LTB4 receptor is “inactive”.

Regarding `CCC1C(C)=NN=C(c2ccc(OC)c(OC)c2)c2cc(O)c(OC)cc21` (stereo not drawn) [Compound 2, 1-(3,4-dimethoxyphenyl)-4-methyl-5-ethyl-7-methoxy-8-hydroxy-5H-2,3-benzodiazepine], at LTB4 receptor, the inhibition at 10 µM was determined as 36%.

In the case of `CCC1C(C)=NN=C(c2ccc(O)c(OC)c2)c2cc(OC)c(OC)cc21` (stereo not drawn) [Compound 3, 1-(3-methoxy-4-hydroxyphenyl)-4-methyl-5-ethyl-7,8-dimethoxy-5H-2,3-benzodiazepine], the inhibition at 10 µM at LTB4 receptor turned out to be 16.8%. Moreover, the inhibition of aggression in the assay with aggression in mice was 0%. Also, in the assay on muricide in rats, the inhibition of muricide is 0%. Further, the anti-noradrenergic effects result in [1] is listed as “measurable activity”. Besides, the narcosis-potentiating activity entry with narcosis in mice was “demonstrate narcosis-potentiating activity”.

Regarding `CCC1C(C)=NN=C(c2ccc(OC)c(OC)c2)c2cc(OC)c(OC)cc21` (stereo not drawn) [tofisopam], the “interaction with central BZ receptors” value in the assay with central BZ receptors is “does not interact”. The “binding to peripheral BZ receptors” value on peripheral BZ receptors is reported as “binds only weakly”.

As for `CCC1C(C)=NN=C(c2ccc(OC)c(O)c2)c2cc(OC)c(OC)cc21` (racemic) [Compound 4, 1-(3-hydroxy-4-methoxyphenyl)-4-methyl-5-ethyl-7,8-dimethoxy-5H-2,3-benzodiazepine], at LTB4 receptor, the inhibition at 10 µM was found to be 64%. This compound yielded an inhibition at 10 µM at TXA2 receptor [2] of 25.9%. In assay [3] (16 mg/kg IP daily + DSS), the “Mean colon length CM ± SEM” value came to 8.9 ± 0.40 CM, the “Mean weight (g) ± SEM Day 0” value came out at 24.6 ± 0.5 g, the “% weight change ± SEM Day 7” value is given as “+0.5 ± 2.2%” and the “Mean weight (g) ± SEM Day 7” value stood at 24.8 ± 0.8 g. Also, in assay [3] (16 mg/kg IP daily + DSS), the “% weight change ± SEM Day 8” value is on record as −1.7 ± 3.0%, the “Mean weight (g) ± SEM Day 8” value is given as 24.3 ± 1.0 g, the “% weight change ± SEM Day 9” value is given as −7.5 ± 4.3% and the “Mean weight (g) ± SEM Day 9” value is given as 22.9 ± 1.4 g. The “% of normal length” value in assay [3] (16 mg/kg IP daily + DSS) was found to be 70.2%. For the same compound, in assay [3] (16 mg/kg IP daily + DSS, listed as 1-(3-hydroxy-4-methoxy-phenyl)-4-methyl-5-ethyl-7,8-dimethoxy-5H-2,3-benzodiazep), the “Colon shortening inhib. %” value is reported as “significantly inhibited colonic shortening”. Moreover, in assay [3] (16 mg/kg IP daily + DSS, listed as 1-(3-hydroxy-4-methoxyphenyl)-4-methyl-5-ethyl-7,8-dimethoxy-5H-2,3-benzodiazepi), the “Colon shortening inhib. %” value amounted to 32%. Besides, in assay [3] (32 mg/kg IP daily + DSS), the “Colon shortening inhib. %” value was determined as 14%, the “Mean colon length CM ± SEM” value worked out at 7.9 ± 0.08 CM, the “Mean DAIWT ± SEM” value amounted to 2.56 ± 0.27 and the “Mean weight (g) ± SEM Day 0” value stood at 24.8 ± 0.2 g. Further, in assay [3] (32 mg/kg IP daily + DSS), the “% weight change ± SEM Day 7” value is −2.5 ± 1.7%, the “Mean weight (g) ± SEM Day 7” value is given as 24.1 ± 0.5 g, the “% weight change ± SEM Day 8” value is on record as −9.1 ± 2.6% and the “Mean weight (g) ± SEM Day 8” value worked out at 22.5 ± 0.7 g. Further, in assay [3] (32 mg/kg IP daily + DSS), the “% weight change ± SEM Day 9” value is −15.7 ± 4.1%, the “Mean weight (g) ± SEM Day 9” value turned out to be 20.9 ± 1.0 g, the “% of normal length” value worked out at 62.3% and the “Mean DAI ± SEM” value worked out at 2.67 ± 0.36. In assay [3] (64 mg/kg IP daily + DSS), the “Colon shortening inhib. %” value is listed as 37%, the “Mean colon length CM ± SEM” value came to 9.2 ± 0.33 CM, the “Mean DAIWT ± SEM” value is 2.00 ± 0.45 and the “Mean weight (g) ± SEM Day 0” value is 23.7 ± 0.2 g. In assay [3] (64 mg/kg IP daily + DSS), the “% weight change ± SEM Day 7” value is reported as −2.7 ± 2.8%, the “Mean weight (g) ± SEM Day 7” value turned out to be 23.0 ± 0.6 g, the “% weight change ± SEM Day 8” value was −4.8 ± 4.3% and the “Mean weight (g) ± SEM Day 8” value is reported as 22.5 ± 0.9 g. Moreover, in assay [3] (64 mg/kg IP daily + DSS), the “% weight change ± SEM Day 9” value is reported as −9.7 ± 4.9%, the “Mean weight (g) ± SEM Day 9” value was determined as 21.3 ± 1.1 g, the “% of normal length” value was 72.5% and the “Mean DAI ± SEM” value worked out at 2.06 ± 0.48. The “weight loss as compared to the negative controls” value in assay [3] (test compound groups (64, 32, 16 mg/kg) + DSS) is “no observed significant difference”.

Consider Pinane-thromboxane, for which the inhibitory constant (Ki) on TXA2 receptor [4] is 149 nM.

As for `CCC1C(C)=NN=C(c2ccc(OC)c(OC)c2)c2cc(OC)c(O)cc21` (stereo not drawn) [Compound 1, 1-(3,4-dimethoxyphenyl)-4-methyl-5-ethyl-7-hydroxy-8-methoxy-5H-2,3-benzodiazepine], the inhibition of aggression in the assay with aggression in mice is 0%. Also, the inhibition of muricide in the assay on muricide in rats is 20%. Besides, the anti-noradrenergic effects result in assay [1] is “no effect”.

On to `CCC1C(C)=NN=C(c2ccc(O)c(OC)c2)c2cc(OC)c(O)cc21` (stereo not drawn) [Compound 5, 1-(3-methoxy-4-hydroxyphenyl)-4-methyl-5-ethyl-7-hydroxy-8-methoxy-5H-2,3-benzodiazepine], for which the “LTB4 % inhib @ 10 μm” value on LTB4 receptor is “inactive”. Further, the inhibition of aggression with aggression in mice is 28.6%. For the same compound, the inhibition of muricide with muricide in rats was 20%. In [1], the anti-noradrenergic effects result is on record as “measurable activity”.

Take `O=C(O)c1cc(/N=N/c2ccc(S(=O)(=O)Nc3ccccn3)cc2)ccc1O` [Sulfasalazine, reference compound]: in assay [3] (300 mg/kg IP daily + DSS), the “Colon shortening inhib. %” value is recorded as 30%, the “Mean colon length CM ± SEM” value is 8.8 ± 0.29 CM, the “Mean weight (g) ± SEM Day 0” value is recorded as 22.6 ± 0.2 g and the “% weight change ± SEM Day 7” value is −0.6 ± 0.5%. Moreover, in [3] (300 mg/kg IP daily + DSS), the “Mean weight (g) ± SEM Day 7” value was found to be 22.4 ± 0.2 g, the “% weight change ± SEM Day 8” value is given as −11.4 ± 1.4%, the “Mean weight (g) ± SEM Day 8” value worked out at 20.0 ± 0.4 g and the “% weight change ± SEM Day 9” value is −17.7 ± 1.8%. Also, in [3] (300 mg/kg IP daily + DSS), the “Mean weight (g) ± SEM Day 9” value was 18.6 ± 0.4 g and the “% of normal length” value came to 69.5%. For the same compound, in assay [3] (300 mg/kg daily + DSS), the “weight loss as compared to the negative controls” value is listed as “no observed significant difference”.

One may read the Ki as a dissociation constant, usually derived from enzyme kinetics or from competition with a known ligand.
